# Laboratory results taken from publication PMC3699461, “Ground State Destabilization by Anionic Nucleophiles Contributes to the Activity of Phosphoryl Transfer Enzymes” (PLoS Biology, 2013).
# Values joined by “and” are separate entries in the source; they are usually repeats but may differ in a detail not shown here. Equal entries are not always repeated. Where two headings read alike, the source gives them in different places.
# Legend:
# [1] = cited from earlier work
# [2] = target: T1, S102G/R166S AP (Escherichia coli, UniProt P00634, R188S/S124G); conditions: fit of Figure 4B, two-state model
# Procedure: (§4) After this first incubation, trace ^32Pi was added and the sample was incubated further to allow ^32Pi binding to complete.
# [3] = target: R166S AP (Escherichia coli, UniProt P00634, R188S); conditions: fit of Figure 4B, two-state model
# Procedure: The tungstate affinity for R166S AP was determined by inhibition of pNPP hydrolysis as was done previously with WT AP [20], but under the standard buffer conditions used in this work. A range of tungstate concentrations was used from at least 5-fold below and above the inhibition constant at each pH.
# [4] = target: T2, WT AP (Escherichia coli, UniProt P00634); conditions: cited from earlier work
# [5] = target: T2, WT AP
# Procedure: as §4
# A competition-binding assay at pH 8.0 for WT AP (see Materials and Methods for assay details) under the standard buffer conditions.
# [6] = ionic strength I = 0.1 for the value 6.9; cited from earlier work
# [7] = target: WT Stp1 (Schizosaccharomyces pombe, UniProt P41893); conditions: pH 6.0, protein up to 500 µM
# Excerpt: The buffer conditions, pH, and temperature were the same as those for the WT Stp1 kinetic inhibition assays (Figure S14A).
# (EPS) Click here for additional data file.
# [8] = target: T2, WT AP; conditions: 0.1–10 µM WT AP, standard buffer
# Excerpt: (§1) The following buffers were used over the indicated pH ranges: NaAcetate (4.5–5.5), NaMES (5.5), NaMaleate (6.0–6.5), Tris•HCl (7.0–7.5), NaMOPS (7.0–8.0), NaCHES (8.5–9.0), and NaCAPS (10–10.5).
# (§2) The retentate is expected to contain both free and bound ^32Pi. […] Scintillation counting of both the filtrate and retentate was used to measure the concentrations of free and bound ^32Pi at the various AP concentrations, and the fraction ^32Pi bound dependence on the AP concentration was used to determine dissociation constants using a modified binding equation, f bound = (C)×([AP]/([AP]+K [drawing 148] ))+(1–C), where C allows for background levels of apparent binding in the absence of protein.
# (§3) To measure the uptake of ^32Pi by the AP sample, the fraction of ^32Pi bound was measured over time starting just after the addition of ^32Pi to the AP samples.
# [9] = target: AP with mutation of Arg166; conditions: read-out: Pi binding constant of Arg166 mutants; pH 8.0; cited from earlier work
# [10] = target: T1, S102G/R166S AP; conditions: Table 2
# Excerpt: as §1, §2, §3
# [11] = target: S102G AP (Escherichia coli, UniProt P00634, S124G); conditions: for trianion versus dianion differential affinity: S102G AP, Table 2
# Excerpt: as §2, §3
# T2 sequence (P00634 22-471): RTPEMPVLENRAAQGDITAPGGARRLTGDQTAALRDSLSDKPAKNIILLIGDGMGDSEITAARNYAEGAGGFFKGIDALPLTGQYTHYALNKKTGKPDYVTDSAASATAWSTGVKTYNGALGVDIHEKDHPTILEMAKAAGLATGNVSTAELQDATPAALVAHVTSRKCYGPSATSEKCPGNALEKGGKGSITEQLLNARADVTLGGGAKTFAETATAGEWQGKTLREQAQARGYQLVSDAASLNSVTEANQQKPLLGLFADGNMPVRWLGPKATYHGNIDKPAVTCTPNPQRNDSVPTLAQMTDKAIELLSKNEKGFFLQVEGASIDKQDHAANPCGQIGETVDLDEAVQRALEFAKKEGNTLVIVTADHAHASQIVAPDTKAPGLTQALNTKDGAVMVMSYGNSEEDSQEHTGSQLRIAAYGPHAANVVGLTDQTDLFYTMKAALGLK
# S102G AP, sequence (P00634 23-471 S124G): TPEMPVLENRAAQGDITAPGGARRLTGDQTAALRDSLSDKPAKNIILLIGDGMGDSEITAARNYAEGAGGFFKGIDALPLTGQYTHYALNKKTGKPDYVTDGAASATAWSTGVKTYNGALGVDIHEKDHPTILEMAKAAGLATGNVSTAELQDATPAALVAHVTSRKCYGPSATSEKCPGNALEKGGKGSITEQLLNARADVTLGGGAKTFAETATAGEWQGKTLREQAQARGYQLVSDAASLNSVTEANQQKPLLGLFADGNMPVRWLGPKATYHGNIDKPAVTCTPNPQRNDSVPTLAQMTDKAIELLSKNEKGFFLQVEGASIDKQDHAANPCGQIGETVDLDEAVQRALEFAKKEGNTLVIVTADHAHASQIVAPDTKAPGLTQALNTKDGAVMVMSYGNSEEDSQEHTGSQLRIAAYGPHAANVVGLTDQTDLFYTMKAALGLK
# T1 sequence (P00634 23-471 S124G/R188S): as the sequence (P00634 23-471 S124G) above, with R166S counted along it
# WT Stp1, sequence (P41893 whole entry): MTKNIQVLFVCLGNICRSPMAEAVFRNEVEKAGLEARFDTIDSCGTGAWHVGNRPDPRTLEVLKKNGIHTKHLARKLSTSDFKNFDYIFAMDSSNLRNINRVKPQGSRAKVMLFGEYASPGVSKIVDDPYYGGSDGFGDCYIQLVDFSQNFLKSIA
# R166S AP, sequence (P00634 23-471 R188S): as the sequence (P00634 23-471 S124G) above, with G102S, R166S counted along it
structure (smiles),measurement,setting,value
Nc1nc2c(ncn2[C@@H]2O[C@H](COP(=O)(O)OP(=O)(O)OP(=O)(O)O)[C@@H](O)[C@H]2O)c(=O)[nH]1 [GTP],"kuncat, uncatalyzed hydrolysis","[1]; 25 °C, 44 of the supplement",~ 5×10^-11 M^-1s^-1
[O]=[W](=[O])([O-])[O-] [tungstate],pH-independent dissociation constant for tungstate binding,[2],890±90 µM
same,pH-independent dissociation constant for tungstate binding,[3],170±25 µM
same,pH-independent dissociation constant for tungstate dianion binding,"[4]; kinetic inhibition, solid line, data from ref 20",0.57±0.11 µM
same,Kd,"[4]; read-out: dissociation constant for tungstate binding, pH 8.0",1.1 µM
same,pH-independent dissociation constant for tungstate dianion binding,"[5]; equilibrium-binding assay via competition with 32Pi, dashed line",2.06±0.48 µM
same,Kd,"[5]; read-out: dissociation constant for tungstate binding, pH 8.0, standard buffer",0.9 ± 0.2 µM
same,solution pKa,[6],~4
"COP(=O)(O)O [methyl phosphate dianion, methyl phosphate]","kuncat, uncatalyzed hydrolysis","[1]; 25 °C, 44 of the supplement",~ 4×10^-22 M^-1s^-1
same,"kuncat, uncatalyzed hydrolysis",[1],~4e-22 M⁻¹ s⁻¹
Nc1ncnc2c1ncn2[C@@H]1O[C@H](COP(=O)(O)OP(=O)(O)OP(=O)(O)O)[C@@H](O)[C@H]1O [ATP],"kuncat, uncatalyzed hydrolysis","[1]; 25 °C, 44 of the supplement",~ 5×10^-11 M^-1s^-1
"O=P(O)(O)O [Pi, inorganic phosphate]",Pi binding in the equilibrium-binding assay,[7],No significant Pi binding
same,observed 32Pi uptake rate constant kobs,[8],≥ 0.03 s⁻¹
same,Ki,[9],460 µM and 640 µM
O=P(O)(O)O [PO4^3-],trianion versus dianion differential affinity,[10],4.3×10^5 fold
same,trianion versus dianion differential affinity,[11],10^7 fold
same,trianion versus dianion differential affinity,[11]; listed as PO,~ 10^7 fold
same,destabilization of Pi trianion binding by the Ser102 alkoxide,[11]; WT AP versus S102G AP,≥ 10^8 fold
